Measured values reported in patent publication US20210400967A1, “COMPOSITIONS COMPRISING PYRIDINE CARBOXYLATE HERBICIDES WITH GLYPHOSATE OR GLUFOSINATE” (Corteva Agriscience LLC, priority 2018, published 2021).

Columns and labels:
Assay type in all cases: in vivo
[1] = test system: Polygonum convolvulus (wild buckwheat); test: Greenhouse postemergence herbicidal effect, wild buckwheat (POLCO); settings: 20-22 d
Excerpt: (§1) Greenhouse Trial Methodology—Evaluation of Postemergence Herbicidal Effect
(§2) Seeds of the desired test plant species were planted in a 90:10% v/v (volume/volume) mixture of PRO-MIX® BX (Premier Tech Horticulture, Quakertown, Pa., USA) and PROFILE® GREENS GRADE™ (Profile Products LLC, Buffalo Grove, Ill., USA) planting mixture, which typically has a pH of 5.2 to 6.2 and an organic matter content of at least 50 percent, in plastic pots with a surface area of 103.2 square centimeters (cm^2). In some aspects, to ensure good germination and healthy plants, a fungicide treatment and/or other chemical or physical treatment was applied. The plants were grown for 7-36 days (d) in a greenhouse with an approximate 14-hour (h) photo-period which was maintained at about 23° C. during the day and 22° C. during the night. Nutrients and water were added on a regular basis and supplemental lighting was provided with overhead metal halide 1000-Watt lamps as necessary. The plants were employed for testing when they reached the second or third true leaf stage.
(§3) Emulsifiable concentrates of each of each pyridine carboxylate herbicide (Compound A or Compound B) were prepared at 100 grams acid equivalent per liter (g ae/L). The emulsifiable concentrates also included a safener, cloquintocet-mexyl, at 120 grams active ingredient per liter (g ai/L). An aliquot of each emulsifiable concentrate was placed in a 25 mL glass vial and diluted with an aqueous mixture of 1.25% (v/v) ACTIROB® B esterified rapeseed oil (Bayer Crop Science, Research Triangle Park, N.C., USA) or MSO® Concentrate with LECI-TECH® methylated soybean oil (Loveland Products, Loveland, Colo., USA) to obtain concentrated stock solutions at the highest application rate for each herbicide, based upon a 12 milliliter (mL) application volume at a rate of 187 liters per hectare (L/ha). The concentrated stock solutions were further diluted with an aqueous mixture of 1.25% v/v ACTIROB® B or MSO® Concentrate with LECI-TECH® to obtain stock solutions at reduced application rates for each herbicide. Spray solutions of the herbicide combinations (Compound A or Compound B plus glyphosate or glufosinate) were prepared by adding weighed amounts or aliquots of the glyphosate or glufosinate to the stock solutions of Compound A or Compound B to form 12-mL spray solutions in two-way combinations.
(§4) The spray solutions were applied to the plant material with an overhead Mandel track sprayer equipped with 8002E nozzles calibrated to deliver 187 L/ha over an application area of 0.503 square meters (m^2) at a spray height of 18 inches (43 centimeters (cm)) above the average plant canopy. Control plants were sprayed in the same manner with the solvent blank. All pyridine carboxylate herbicide (component a) application rates are given as “g ae/ha” and all glyphosate or glufosinate (component b) application rates are given as “g ai/ha.”
(§5) The treated plants and control plants were placed in a greenhouse as described above and watered by sub-irrigation to prevent wash-off of the test compounds. After 20-22 d, the condition of the test plants as compared with that of the control plants was determined visually and scored on a scale of 0 to 100 percent where 0 corresponds to no injury and 100 corresponds to complete kill.

Kochia scoparia (kochia) = test: Greenhouse postemergence herbicidal effect, kochia (KCHSC); settings: 20-22 d
Excerpt: as §1, §2, §3, §4, §5

[2] = test system: Chenopodium album L. (common lambsquarters); test: Greenhouse postemergence herbicidal effect, common lambsquarters (CHEAL); settings: 20-22 d
Excerpt: as §1, §2, §3, §4, §5

[3] = test system: Cirsium arvense (Canadian thistle); test: Greenhouse postemergence herbicidal effect, Canadian thistle (CIRAR); settings: 20-22 d
Excerpt: as §1, §2, §3, §4, §5

[4] = test system: Brassica napus (spring rape); test: Greenhouse postemergence herbicidal effect, spring rape (BRSNN); settings: 20-22 d
Excerpt: as §1, §2, §3, §4, §5

[5] = test system: Setaria faberi (giant foxtail); test: Greenhouse postemergence herbicidal effect, giant foxtail (SETFA); settings: 20-22 d
Excerpt: as §1, §2, §3, §4, §5

[6] = test system: Abutilon theophrasti (velvetleaf); test: Greenhouse postemergence herbicidal effect, velvetleaf (ABUTH); settings: Example 4, 20-22 d
Excerpt: as §1, §2
Emulsifiable concentrates of each of each pyridine carboxylate herbicide (Compound A or Compound B) were prepared at 100 grams acid equivalent per liter (g ae/L). The emulsifiable concentrates also included a safener, cloquintocet-mexyl, at 120 grams active ingredient per liter (g ai/L). […]
as §5

[7] = test system: Viola tricolor (wild pansy); test: Greenhouse postemergence herbicidal effect, wild pansy (VIOTR); settings: Example 4, 20-22 d
Excerpt: as §1, §2, §3, §4, §5

[8] = Example 3, Compound B 7.5 g ae/ha alone
[9] = Example 3, Compound B 10 g ae/ha alone
[10] = Example 4, Compound B 7.5 g ae/ha alone
[11] = Example 4, Compound B 10 g ae/ha alone

Compound: C#CCOC(=O)c1nc(-c2ccc3cc[nH]c3c2F)c(F)c(N)c1Cl [Compound B, propargyl 4-amino-3-chloro-5-fluoro-6-(7-fluoro-1H-indol-6-yl)pyridine-2-carboxylate]
- % visual injury, Obs [1, 8]: 73%
- % visual injury, Obs [1, 9]: 80%
- % visual injury, Obs [1, 10]: 73%
- % visual injury, Obs [1, 11]: 80%
- % visual injury, Obs (Kochia scoparia (kochia); [8]): 68%
- % visual injury, Obs (Kochia scoparia (kochia); [9]): 80%
- % visual injury, Obs (Kochia scoparia (kochia); [10]): 68%
- % visual injury, Obs (Kochia scoparia (kochia); [11]): 80%
- % visual injury, Obs [2, 8]: 85%
- % visual injury, Obs [2, 9]: 90%
- % visual injury, Obs [2, 10]: 85%
- % visual injury, Obs [2, 11]: 90%
- % visual injury, Obs [3, 8]: 45%
- % visual injury, Obs [3, 9]: 45%
- % visual injury, Obs [3, 10]: 45%
- % visual injury, Obs [3, 11]: 45%
- % visual injury, Obs [4, 8]: 68%
- % visual injury, Obs [4, 9]: 85%
- % visual injury, Obs [4, 10]: 68%
- % visual injury, Obs [4, 11]: 85%
- % visual injury, Obs [5, 8]: 70%
- % visual injury, Obs [5, 9]: 55%
- % visual injury, Obs [5, 10]: 70%
- % visual injury, Obs [5, 11]: 55%
- % visual injury, Obs ([6]; Compound B 7.5 g ae/ha alone): 68%
- % visual injury, Obs ([6]; Compound B 10 g ae/ha alone): 68%
- % visual injury, Obs ([7]; Compound B 7.5 g ae/ha alone): 10%
- % visual injury, Obs ([7]; Compound B 10 g ae/ha alone): 40%
